The values below come from ChEMBL document CHEMBL1165890, “Inside HDAC with HDAC inhibitors” (Eur J Med Chem, 2010).

Non-standard residues stand in square brackets, D forms with d. Residues, ends and D or L forms follow the SMILES beside them. *: point of attachment. Ala(indol-2-yl) = N[C@@H](Cc1cc2ccccc2[nH]1)C(=O)O; Asu = N[C@@H](CCCCCC(=O)O)C(=O)O; β3hI = CC[C@H](C)[C@H](N)CC(=O)O; NHOH = ON*

The target of one test is Histone deacetylase. The settings on record: hela.
The target in the next test is Histone deacetylase 1 (Homo sapiens, UniProt Q13547). The test can be described thus: Inhibition of recombinant HDAC1.
Histone deacetylase 1, sequence (Q13547 whole entry): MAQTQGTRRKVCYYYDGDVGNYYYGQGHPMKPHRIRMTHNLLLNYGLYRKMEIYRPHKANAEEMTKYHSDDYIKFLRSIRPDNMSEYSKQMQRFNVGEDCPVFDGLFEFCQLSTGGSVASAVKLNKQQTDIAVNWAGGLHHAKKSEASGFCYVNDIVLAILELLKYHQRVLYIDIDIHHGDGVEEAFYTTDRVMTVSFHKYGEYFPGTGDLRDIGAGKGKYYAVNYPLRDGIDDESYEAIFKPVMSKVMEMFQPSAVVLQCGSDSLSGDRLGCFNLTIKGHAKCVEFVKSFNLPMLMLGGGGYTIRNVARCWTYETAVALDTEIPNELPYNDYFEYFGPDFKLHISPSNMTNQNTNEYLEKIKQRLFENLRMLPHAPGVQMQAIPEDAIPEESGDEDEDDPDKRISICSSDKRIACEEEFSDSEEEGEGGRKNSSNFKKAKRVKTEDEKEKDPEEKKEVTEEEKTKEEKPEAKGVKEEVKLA
The next test addresses Histone deacetylase 2 (Homo sapiens, UniProt Q92769). Nature of the test: Inhibition of recombinant HDAC2.
The target of the next test is Histone deacetylase 3 (Homo sapiens, UniProt O15379). Nature of the test: Inhibition of recombinant HDAC3.
Histone deacetylase 3, sequence (O15379 whole entry): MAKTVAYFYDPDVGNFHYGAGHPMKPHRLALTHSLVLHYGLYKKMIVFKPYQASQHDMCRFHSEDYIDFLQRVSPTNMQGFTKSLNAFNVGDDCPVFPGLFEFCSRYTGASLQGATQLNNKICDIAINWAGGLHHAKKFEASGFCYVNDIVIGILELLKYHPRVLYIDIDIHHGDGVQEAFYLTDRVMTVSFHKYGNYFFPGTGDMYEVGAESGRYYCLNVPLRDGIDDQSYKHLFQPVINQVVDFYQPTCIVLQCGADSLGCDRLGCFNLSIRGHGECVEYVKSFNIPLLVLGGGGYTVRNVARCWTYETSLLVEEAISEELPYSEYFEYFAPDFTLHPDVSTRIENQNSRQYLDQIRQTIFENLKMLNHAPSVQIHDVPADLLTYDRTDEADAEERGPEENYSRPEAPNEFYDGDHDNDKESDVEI
Test [1] concerns the target T1, Protein deacetylase HDAC6 (Homo sapiens, UniProt Q9UBN7).
T1 sequence (Q9UBN7 whole entry): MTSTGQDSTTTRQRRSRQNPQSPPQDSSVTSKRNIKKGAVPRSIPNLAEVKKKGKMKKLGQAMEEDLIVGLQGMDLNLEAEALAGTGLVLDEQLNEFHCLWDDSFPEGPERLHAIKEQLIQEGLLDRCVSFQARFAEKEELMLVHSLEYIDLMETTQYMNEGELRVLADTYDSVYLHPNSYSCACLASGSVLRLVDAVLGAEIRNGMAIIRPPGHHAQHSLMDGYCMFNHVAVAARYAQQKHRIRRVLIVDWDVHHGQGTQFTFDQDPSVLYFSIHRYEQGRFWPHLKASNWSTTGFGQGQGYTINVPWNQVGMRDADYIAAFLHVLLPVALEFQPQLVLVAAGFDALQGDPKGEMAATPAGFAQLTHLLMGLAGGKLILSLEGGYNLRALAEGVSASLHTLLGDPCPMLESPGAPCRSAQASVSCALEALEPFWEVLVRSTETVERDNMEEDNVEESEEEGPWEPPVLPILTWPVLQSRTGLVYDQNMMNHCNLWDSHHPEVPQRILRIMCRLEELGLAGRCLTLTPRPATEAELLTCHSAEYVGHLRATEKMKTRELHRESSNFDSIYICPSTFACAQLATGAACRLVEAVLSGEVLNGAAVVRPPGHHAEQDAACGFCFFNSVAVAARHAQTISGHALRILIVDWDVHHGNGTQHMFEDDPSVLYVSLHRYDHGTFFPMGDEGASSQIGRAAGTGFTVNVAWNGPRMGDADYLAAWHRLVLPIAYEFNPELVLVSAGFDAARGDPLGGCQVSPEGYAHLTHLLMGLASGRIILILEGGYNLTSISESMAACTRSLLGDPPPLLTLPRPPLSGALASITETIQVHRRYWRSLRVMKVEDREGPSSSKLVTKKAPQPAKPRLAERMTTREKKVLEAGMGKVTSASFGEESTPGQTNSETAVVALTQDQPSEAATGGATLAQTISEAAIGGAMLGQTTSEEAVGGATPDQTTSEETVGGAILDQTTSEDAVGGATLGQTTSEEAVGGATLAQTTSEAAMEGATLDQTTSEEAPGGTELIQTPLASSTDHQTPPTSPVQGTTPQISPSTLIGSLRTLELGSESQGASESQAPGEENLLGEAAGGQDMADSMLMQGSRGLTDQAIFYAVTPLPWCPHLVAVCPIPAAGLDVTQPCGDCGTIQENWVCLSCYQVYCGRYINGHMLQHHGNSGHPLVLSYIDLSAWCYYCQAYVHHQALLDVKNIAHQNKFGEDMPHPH
Nature of the test: Inhibition of recombinant HDAC6.

The target in the next test is T2, Histone deacetylase 8 (Homo sapiens, UniProt Q9BY41).
T2 sequence (Q9BY41 whole entry): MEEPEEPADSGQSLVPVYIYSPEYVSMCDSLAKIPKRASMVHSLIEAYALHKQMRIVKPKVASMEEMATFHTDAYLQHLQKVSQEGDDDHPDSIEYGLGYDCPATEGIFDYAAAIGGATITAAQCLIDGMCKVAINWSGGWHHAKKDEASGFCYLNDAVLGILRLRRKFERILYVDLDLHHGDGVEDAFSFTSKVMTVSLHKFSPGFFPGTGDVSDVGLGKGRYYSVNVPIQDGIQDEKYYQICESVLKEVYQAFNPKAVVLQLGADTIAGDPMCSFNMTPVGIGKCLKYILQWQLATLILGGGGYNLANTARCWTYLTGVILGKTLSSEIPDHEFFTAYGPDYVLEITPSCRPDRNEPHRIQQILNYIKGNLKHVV
The test can be described thus: Inhibition of recombinant HDAC8.

Test [2] has as its target T3, Polyamine deacetylase HDAC10 (Homo sapiens, UniProt Q969S8).
T3 sequence (Q969S8 whole entry): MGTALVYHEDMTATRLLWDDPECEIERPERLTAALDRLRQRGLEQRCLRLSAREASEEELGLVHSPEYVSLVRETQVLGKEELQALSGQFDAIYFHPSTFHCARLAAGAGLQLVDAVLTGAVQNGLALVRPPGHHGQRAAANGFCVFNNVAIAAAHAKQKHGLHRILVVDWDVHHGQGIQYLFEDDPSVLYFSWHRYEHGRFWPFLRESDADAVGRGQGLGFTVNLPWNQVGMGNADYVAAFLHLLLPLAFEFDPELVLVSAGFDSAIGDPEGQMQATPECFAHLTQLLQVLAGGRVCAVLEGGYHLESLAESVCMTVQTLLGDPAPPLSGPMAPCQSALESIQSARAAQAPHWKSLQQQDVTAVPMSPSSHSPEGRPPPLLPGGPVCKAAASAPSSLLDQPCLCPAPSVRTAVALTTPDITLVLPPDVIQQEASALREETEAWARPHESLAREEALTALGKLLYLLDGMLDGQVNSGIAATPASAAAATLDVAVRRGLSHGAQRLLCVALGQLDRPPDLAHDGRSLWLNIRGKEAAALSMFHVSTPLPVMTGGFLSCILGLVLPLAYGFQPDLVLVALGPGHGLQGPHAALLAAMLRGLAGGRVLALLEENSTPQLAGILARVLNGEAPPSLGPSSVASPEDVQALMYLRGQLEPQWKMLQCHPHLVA
Nature of the test: Inhibition of HDAC10.

In the next test the test system is HCT-116. Nature of the test: Antitumor activity against human HCT116 cells xenografted in mouse at 30 mg/kg. It counts as functional. A general note: A xenograft is tissue or cells of one species grown in another, often human tumour cells in immunodeficient mice.

Histone deacetylase 2, sequence (Q92769 whole entry): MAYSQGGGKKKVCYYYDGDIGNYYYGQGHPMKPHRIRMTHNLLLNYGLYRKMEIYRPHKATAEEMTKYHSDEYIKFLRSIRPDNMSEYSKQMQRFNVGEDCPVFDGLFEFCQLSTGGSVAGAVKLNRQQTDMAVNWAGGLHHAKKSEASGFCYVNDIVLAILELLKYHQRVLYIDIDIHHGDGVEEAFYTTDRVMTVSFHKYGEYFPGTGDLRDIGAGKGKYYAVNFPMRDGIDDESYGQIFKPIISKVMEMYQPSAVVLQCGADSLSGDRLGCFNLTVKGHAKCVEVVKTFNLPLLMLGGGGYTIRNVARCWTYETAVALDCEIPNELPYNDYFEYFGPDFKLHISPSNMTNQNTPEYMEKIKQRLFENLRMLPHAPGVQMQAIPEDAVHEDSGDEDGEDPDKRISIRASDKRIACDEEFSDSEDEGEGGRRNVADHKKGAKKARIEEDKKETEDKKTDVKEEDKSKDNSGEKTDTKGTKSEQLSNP

For orientation: IC50 means the concentration that gives 50% inhibition. In the case of `CCC(=O)CCCCC[C@@H]1NC(=O)CNC(=O)C[C@H]([C@@H](C)CC)N(C)C(=O)[C@H](Cc2cc3ccccc3[nH]2)NC1=O`, the IC50 against Histone deacetylase was 2000 nM. At Histone deacetylase, `CCC(=O)CCCCC[C@@H]1NC(=O)CNC(=O)C[C@H]([C@@H](C)CC)NC(=O)[C@H](Cc2cc3ccccc3[nH]2)NC1=O` gave a half-maximal inhibitory concentration (IC50) of 19 nM. As to `N=C/C=N/c1ccc(C(=O)Nc2cc(-c3cccs3)ccc2N)cc1`, the IC50 is 60 nM on Histone deacetylase 1; 20 nM at Histone deacetylase 2; more than 20000 nM at Histone deacetylase 3; more than 20000 nM in test [1]; more than 20000 nM at Histone deacetylase 8. `CCC(=O)CCCCC[C@@H]1NC(=O)[C@H](C)NC(=O)C[C@H]([C@@H](C)CC)NC(=O)[C@H](Cc2cc3ccccc3[nH]2)NC1=O` registered an IC50 on Histone deacetylase of 40 nM. The same measure, in the same setting: the value for `CCC(=O)CCCCC[C@@H]1NC(=O)CNC(=O)C[C@H]([C@@H](C)CC)NC(=O)[C@H](Cc2cc3ccccc3[nH]2)N(C)C1=O` was more than 10000 nM; that for `O=C(CS)NCCCCCC(=O)Nc1cccc2cccnc12` was 900 nM.

At Histone deacetylase, `O=C(CS)NCCCCCC(=O)Nc1ccc2ncccc2c1` came in with an IC50 of 900 nM. With `COc1ccc(C(=O)Nc2cc(-c3cccs3)ccc2N)cc1`, the IC50 (on Histone deacetylase 3; in test [1]; at Histone deacetylase 8) was more than 20000 nM throughout. `CC(=O)Nc1ccc(C(=O)Nc2cc(-c3cccs3)ccc2N)cc1`: the concentration for half-maximal inhibition (IC50) at Histone deacetylase 8 is more than 20000 nM.

In turn, `Cn1c(/C=C/C(=O)NO)ccc1C(=O)c1ccccc1` had a concentration for half-maximal inhibition (IC50) in test [2] of 280 nM. The same measure, in the same setting: next, `Cn1cc(/C=C/C(=O)NO)cc1C(=O)c1ccccc1`: 50 nM. Compound `CC[C@H](C)[C@H]1CC(=O)NCC(=O)N[C@@H](CCCCCC(N)=O)C(=O)N[C@@H](Cc2cc3ccccc3[nH]2)C(=O)N1` (cyclo([Asu](NH2)[Ala(indol-2-yl)][β3hI]G)) yielded an IC50 at Histone deacetylase of 2700 nM. For `CC[C@H](C)[C@H]1CC(=O)NCC(=O)N[C@@H](CCCCCC(=O)NO)C(=O)N[C@@H](Cc2cc3ccccc3[nH]2)C(=O)N1` (cyclo([Asu](NHOH)[Ala(indol-2-yl)][β3hI]G)), the half-maximal inhibitory concentration (IC50) at Histone deacetylase is given as less than 1 nM. In the case of `CC[C@H](C)[C@H]1CC(=O)NCC(=O)N[C@@H](CCCCCC(=O)O)C(=O)N[C@@H](Cc2cc3ccccc3[nH]2)C(=O)N1` (cyclo([Asu][Ala(indol-2-yl)][β3hI]G)), the concentration for half-maximal inhibition (IC50) against Histone deacetylase is 300 nM. The inhibition in vivo is the drop in the measured response relative to a control, in per cent. In the case of `CC(=O)Nc1ccc(C(=O)Nc2ccccc2N)cc1` [TACEDINALINE], the inhibition in vivo at 30 mg/kg with HCT-116 was 52%.
